Experimental data reported in patent publication US9492471B2, “Methods of treating a disease or disorder associated with Bruton'S Tyrosine Kinase” (Celgene Avilomics Research, Inc., priority 2013, dated 2016).
Where two headings read alike, the source gives them in different places.

Legend:
Experiment in all cases: HotSpot kinase profiling
Assay type in all cases: biochemical
PLK1 = target: T1, PLK1 (Homo sapiens, UniProt P53350)
T1 construct: purchased Reaction Biology Corp
Outline: (§1)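 Activity is measured by radiolabel transfer captured on P81 filters after a 2 h room-temperature reaction of kinase, substrate and cofactors. Values are percent inhibition against DMSO.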

FES/FPS = target: T2, FES/FPS (Homo sapiens, UniProt P07332)
T2 construct: purchased Reaction Biology Corp
Outline: as §1

TSSK2 = target: T3, TSSK2 (Homo sapiens, UniProt Q96PF2)
T3 construct: purchased Reaction Biology Corp
T3 sequence (Q96PF2 1-358): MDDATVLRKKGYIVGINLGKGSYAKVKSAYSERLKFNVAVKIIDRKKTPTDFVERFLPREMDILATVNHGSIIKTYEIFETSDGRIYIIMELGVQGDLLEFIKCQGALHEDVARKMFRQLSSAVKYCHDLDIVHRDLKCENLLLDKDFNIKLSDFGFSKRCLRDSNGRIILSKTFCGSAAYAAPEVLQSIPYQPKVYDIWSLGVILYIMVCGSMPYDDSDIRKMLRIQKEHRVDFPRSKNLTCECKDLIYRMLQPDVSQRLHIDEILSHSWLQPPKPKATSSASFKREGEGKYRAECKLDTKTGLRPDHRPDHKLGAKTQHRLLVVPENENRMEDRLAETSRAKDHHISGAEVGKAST
Outline: as §1

P70S6K/RPS6KB1 = target: T4, P70S6K/RPS6KB1 (Homo sapiens, UniProt P23443)
T4 construct: purchased Reaction Biology Corp
Outline: as §1

MEK2 = target: T5, MEK2 (Homo sapiens, UniProt P36507)
T5 construct: purchased Reaction Biology Corp
Outline: as §1

ULK3 = target: T6, ULK3 (Homo sapiens, UniProt Q6PHR2)
T6 construct: purchased Reaction Biology Corp
T6 sequence (Q6PHR2 1-472): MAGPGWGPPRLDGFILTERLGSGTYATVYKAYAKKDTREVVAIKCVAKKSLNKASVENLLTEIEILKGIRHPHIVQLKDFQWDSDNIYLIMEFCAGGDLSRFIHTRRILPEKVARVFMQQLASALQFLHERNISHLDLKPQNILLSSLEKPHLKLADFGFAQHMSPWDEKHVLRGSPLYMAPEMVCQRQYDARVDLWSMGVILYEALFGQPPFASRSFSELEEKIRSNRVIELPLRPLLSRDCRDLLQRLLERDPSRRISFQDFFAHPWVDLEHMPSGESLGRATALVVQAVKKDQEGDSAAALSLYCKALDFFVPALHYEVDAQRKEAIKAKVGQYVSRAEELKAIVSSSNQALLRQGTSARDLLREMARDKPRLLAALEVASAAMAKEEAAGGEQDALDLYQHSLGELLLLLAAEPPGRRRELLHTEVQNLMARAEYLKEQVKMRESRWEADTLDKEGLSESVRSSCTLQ
Outline: as §1

CTK/MATK = target: T7, CTK/MATK (Homo sapiens, UniProt P42679)
T7 construct: purchased Reaction Biology Corp
T7 sequence (P42679 1-507): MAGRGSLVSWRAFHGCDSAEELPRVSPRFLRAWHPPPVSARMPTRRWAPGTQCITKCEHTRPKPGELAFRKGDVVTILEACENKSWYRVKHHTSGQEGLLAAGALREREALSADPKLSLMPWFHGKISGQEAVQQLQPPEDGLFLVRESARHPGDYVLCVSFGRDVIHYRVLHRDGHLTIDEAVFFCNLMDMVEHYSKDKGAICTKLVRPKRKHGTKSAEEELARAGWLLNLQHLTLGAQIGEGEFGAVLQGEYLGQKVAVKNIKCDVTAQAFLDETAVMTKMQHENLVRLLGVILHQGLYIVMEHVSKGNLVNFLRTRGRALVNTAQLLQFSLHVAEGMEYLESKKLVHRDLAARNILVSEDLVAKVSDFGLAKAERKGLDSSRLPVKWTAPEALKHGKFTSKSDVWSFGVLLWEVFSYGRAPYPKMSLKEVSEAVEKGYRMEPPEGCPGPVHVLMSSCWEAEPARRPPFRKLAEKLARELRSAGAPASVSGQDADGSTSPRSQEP
Outline: as §1

[1] = read-out: % Enzyme Activity (relative to DMSO controls) Run 1
[2] = read-out: % Enzyme Activity (relative to DMSO controls) Run 2

T2 sequence (P07332 whole entry): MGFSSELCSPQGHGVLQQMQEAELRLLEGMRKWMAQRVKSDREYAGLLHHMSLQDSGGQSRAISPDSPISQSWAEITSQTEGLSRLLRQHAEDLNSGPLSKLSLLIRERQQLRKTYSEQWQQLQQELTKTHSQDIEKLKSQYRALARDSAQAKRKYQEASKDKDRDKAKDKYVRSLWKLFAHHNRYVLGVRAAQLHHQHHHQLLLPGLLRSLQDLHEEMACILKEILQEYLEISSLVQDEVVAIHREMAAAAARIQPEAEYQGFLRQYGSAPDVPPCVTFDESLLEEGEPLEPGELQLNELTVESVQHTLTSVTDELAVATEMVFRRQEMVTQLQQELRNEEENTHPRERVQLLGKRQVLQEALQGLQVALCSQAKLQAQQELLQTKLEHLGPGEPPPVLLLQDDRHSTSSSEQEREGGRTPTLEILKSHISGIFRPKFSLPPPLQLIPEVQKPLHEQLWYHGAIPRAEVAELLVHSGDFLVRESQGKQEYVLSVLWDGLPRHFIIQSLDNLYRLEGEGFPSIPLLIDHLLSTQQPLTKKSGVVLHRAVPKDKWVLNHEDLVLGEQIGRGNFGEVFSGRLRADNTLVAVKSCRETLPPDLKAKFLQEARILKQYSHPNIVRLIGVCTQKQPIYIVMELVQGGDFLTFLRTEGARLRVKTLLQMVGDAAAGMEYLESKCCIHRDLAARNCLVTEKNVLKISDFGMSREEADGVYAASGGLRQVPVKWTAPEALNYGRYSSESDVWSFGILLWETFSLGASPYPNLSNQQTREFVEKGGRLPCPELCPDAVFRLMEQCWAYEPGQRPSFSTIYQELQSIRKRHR
T4 sequence (P23443 whole entry): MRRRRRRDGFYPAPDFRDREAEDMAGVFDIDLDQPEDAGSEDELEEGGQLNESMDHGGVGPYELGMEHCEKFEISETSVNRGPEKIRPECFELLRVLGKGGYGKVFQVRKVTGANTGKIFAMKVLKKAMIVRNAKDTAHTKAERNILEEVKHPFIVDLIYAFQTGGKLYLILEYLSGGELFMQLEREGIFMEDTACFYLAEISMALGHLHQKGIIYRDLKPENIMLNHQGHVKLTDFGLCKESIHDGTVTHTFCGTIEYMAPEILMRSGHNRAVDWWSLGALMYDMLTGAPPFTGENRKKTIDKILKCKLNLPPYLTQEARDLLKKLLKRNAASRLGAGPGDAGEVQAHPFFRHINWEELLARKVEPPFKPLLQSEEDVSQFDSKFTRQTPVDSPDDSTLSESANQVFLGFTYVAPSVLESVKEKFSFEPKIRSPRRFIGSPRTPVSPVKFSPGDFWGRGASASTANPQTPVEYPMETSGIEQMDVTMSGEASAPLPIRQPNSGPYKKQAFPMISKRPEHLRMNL
T1 sequence (P53350 whole entry): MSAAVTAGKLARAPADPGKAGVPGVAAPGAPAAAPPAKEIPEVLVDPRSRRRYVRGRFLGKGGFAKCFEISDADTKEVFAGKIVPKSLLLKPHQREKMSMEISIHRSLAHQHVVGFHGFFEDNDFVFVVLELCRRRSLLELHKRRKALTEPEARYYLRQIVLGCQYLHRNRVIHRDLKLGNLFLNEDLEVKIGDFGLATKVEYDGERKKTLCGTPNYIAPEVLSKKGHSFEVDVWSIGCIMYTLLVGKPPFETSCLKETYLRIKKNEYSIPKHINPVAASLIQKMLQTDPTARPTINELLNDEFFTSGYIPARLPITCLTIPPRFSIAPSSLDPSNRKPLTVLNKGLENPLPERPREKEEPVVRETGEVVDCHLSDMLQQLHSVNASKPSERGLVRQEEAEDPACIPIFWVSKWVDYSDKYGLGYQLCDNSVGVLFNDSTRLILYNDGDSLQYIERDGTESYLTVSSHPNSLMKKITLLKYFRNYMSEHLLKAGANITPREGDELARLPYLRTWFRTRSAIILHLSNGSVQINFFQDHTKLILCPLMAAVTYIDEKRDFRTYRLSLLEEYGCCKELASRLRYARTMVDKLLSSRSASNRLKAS
T5 sequence (P36507 whole entry): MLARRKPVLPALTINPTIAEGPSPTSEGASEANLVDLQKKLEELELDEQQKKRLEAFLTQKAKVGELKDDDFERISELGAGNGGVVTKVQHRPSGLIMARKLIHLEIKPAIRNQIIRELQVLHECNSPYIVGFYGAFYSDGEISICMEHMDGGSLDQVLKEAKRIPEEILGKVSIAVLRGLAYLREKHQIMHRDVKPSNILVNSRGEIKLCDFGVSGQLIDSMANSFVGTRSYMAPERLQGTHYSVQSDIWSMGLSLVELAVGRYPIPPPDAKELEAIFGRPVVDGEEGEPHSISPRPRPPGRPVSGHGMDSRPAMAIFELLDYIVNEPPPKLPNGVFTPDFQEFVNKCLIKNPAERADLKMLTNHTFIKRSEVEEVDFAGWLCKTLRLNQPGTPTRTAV

C=CC(=O)Nc1cccc(Nc2nc(Nc3ccc(OCCOC)c(F)c3)ncc2F)c1 [Compound 2]
inhibition at 3 µM (PLK1): 8.06% | remaining activity at 3 µM (PLK1; [1]): 91.1% | remaining activity at 3 µM (PLK1; [2]): 92.8% | inhibition at 3 µM (FES/FPS): 35% | remaining activity at 3 µM (FES/FPS; [1]): 64% | remaining activity at 3 µM (FES/FPS; [2]): 66% | inhibition at 3 µM (TSSK2): 3.36% | remaining activity at 3 µM (TSSK2; [1]): 97% | remaining activity at 3 µM (TSSK2; [2]): 96.3% | inhibition at 3 µM (P70S6K/RPS6KB1): 16.5% | remaining activity at 3 µM (P70S6K/RPS6KB1; [1]): 85.9% | remaining activity at 3 µM (P70S6K/RPS6KB1; [2]): 81% | inhibition at 3 µM (MEK2): -5.66% | remaining activity at 3 µM (MEK2; [1]): 106% | remaining activity at 3 µM (MEK2; [2]): 105% | inhibition at 3 µM (ULK3): 21.7% | remaining activity at 3 µM (ULK3; [1]): 79.6% | remaining activity at 3 µM (ULK3; [2]): 77% | inhibition at 3 µM (CTK/MATK): -3.03% | remaining activity at 3 µM (CTK/MATK; [1]): 102% | remaining activity at 3 µM (CTK/MATK; [2]): 104%
